Results on one compound are retold here after US6753005B1, “Method for tissue perfusion” (Direct Therapeutics, Inc., priority 1997, dated 2004).

The series concerns normal feline brain. The series can be described thus: Normal feline brain model, direct intra-tissue injection. Conditions: for Gross Findings: lesion size: 2 weeks. As to the method:
Mongrel cats weighing 2.5-3.0 kg were obtained from Liberty Research, Waverly, N.Y. Animals were anaesthetized using intramuscular acepromazine at 0.1 mg/kg, followed by 0-30 mg total dose of ketamine. A small incision was made over and extending posteriorly from the coronal suture. A 3 mm burr hole was made 0.75 cm posterior to the coronal suture and 0.75 cm lateral to the midline. Using a stereotactic frame, solutions were injected at a depth of 0.75 cm in the area of the sensory cortex. The burr hole was closed with bone wax and the skin closed with a skin clip. Doses of carmustine between 5 and 20 mg were administered in dehydrated alcohol volumes of between 0.05-0.4 ml. Two weeks post injection animals were sacrificed, the brain removed in toto and fixed in 10% buffered formalin and the brain examined grossly for lesions at the site of injection. Solutions injected consisted of an ethanol solvent vehicle alone, or containing varying concentrations of carmustine.

The mark [1] stands for this setting: 0.05 ml ethanol + 5 mg carmustine (100 mg/ml), 1 cat.
The mark [2] stands for this setting: 0.05 ml ethanol + 20 mg carmustine (400 mg/ml), 1 cat.
Where [3] appears, read: 0.1 ml ethanol + 10 mg carmustine (100 mg/ml), 1 cat.
[4] abbreviates: 0.2 ml ethanol + 5 mg carmustine (25 mg/ml), 1 cat.
The mark [5] stands for this setting: 0.4 ml ethanol + 5 mg carmustine (12.5 mg/ml), 1 cat.

Entries after “also recorded” stand apart in the source; their conditions may differ.

With `O=NN(CCCl)C(=O)NCCCl` [Carmustine, carmustine], the “Clinical Signs” value under setting [1] was “NPND”; the “Clinical Signs” value (0.05 ml ethanol + 10 mg carmustine (200 mg/ml), 1 cat) is “Circles to left, otherwise”; the “Clinical Signs” value under setting [2] was “Died”; the “Clinical Signs” value under setting [3] is “NPND”; the “Clinical Signs” value under setting [4] is “NPND”; the “Clinical Signs” value under setting [5] is reported as “NPND”. Moreover, the “Gross Findings: lesion size” value is, setting by setting: under setting [1], 2-3 mm; under setting [3], 4-5 mm; under setting [4], 4 mm; under setting [5], 2-3 mm. The Survival entry is given as “Term” (0.05 ml ethanol + 5 mg carmustine (100 mg/ml), 1 cat, sacrifice 2 weeks); “Term” (0.05 ml ethanol + 10 mg carmustine (200 mg/ml), 1 cat, sacrifice 2 weeks); 3 days under setting [2]; “Term” (0.1 ml ethanol + 10 mg carmustine (100 mg/ml), 1 cat, sacrifice 2 weeks); “Term” (0.2 ml ethanol + 5 mg carmustine (25 mg/ml), 1 cat, sacrifice 2 weeks); “Term” (0.4 ml ethanol + 5 mg carmustine (12.5 mg/ml), 1 cat, sacrifice 2 weeks). In addition, the “Gross Findings: lesion size (diameter)” value under setting [2] is listed as 1-1.5 cm. Also, the volume of lesion (0.05 ml ethanol containing 20 mg (400 mg/ml) carmustine) was 1.0 to 1.77 mL. The compound also registered a volume of lesions (0.05 ml ethanol containing 10 and 20 mg (200 and 400 mg/ml) carmustine) of 1.0 to 1.77 mL. Also, the “toxic effects on the tissue” value (0.4 ml ethanol containing 5 mg (12.5 mg/ml) carmustine) was “no toxic effects”. Besides, the “effect on post-mitotic (non-dividing) cells of normal brain” value (50 μl ethanol, carmustine 200 or 400 mg/ml) is “destruction of a relatively large volume of tissue; also recorded: novel activity of carmustine against non-dividing cells”. The “toxic effects in normal brain tissue” value (solutions containing carmustine up to 100 mg/ml) is recorded as “no toxic effects”.
